{"source": "paper PMC12573178", "about": "“Substrate-Guided Development of HDAC11-Selective Inhibitors Featuring α‑Amino Amide Zinc-Binding Groups” (ACS Omega, 2025)", "tested_on": "HEK293 cells", "assay": "Cell permeability / uptake, UPLC-MS of cell lysate", "type": "cell-based", "conditions": "40 µM 31, 37 °C overnight, detected by mass spectrometry in cell lysate", "description": "H Stability and permeability of 31 […]\nstability was performed as described 21. Briefly, 400 µl of human serum or cell lysate from HEK293 cells (1 mg/ml) were incubated at 37 °C with 150 μM of 31 with 5% (v/v) DMSO. Samples of 45 µl were taken out at different time points and quenched with 50 µl of aqueous urea (6 M) and 100 µl of ACN.\nFollowing centrifugation, 2 µl of a 2% (m/v) K 2CO3 solution in H2O and 1.5 µl of a 0.2 M Fmoc-OSu in ACN were added to the samples, which were then shaken at 1000 rpm for two hours at room temperature. This enabled the quantification of the residual amount of the compound via UPLC-UV/VIS at 260 nm. Compound peak areas were integrated. The experiments were performed in triplicate.\nAfter 24h, 7% of 31 remained […]\ndetectable in cell lysate, and 20 % of 31 were still present in human serum (Figure S 38). […]\nshown as mean values relative to the peak intensity at 0 h. Error bars represent the SD of three replicates.\nFor cell permeability studies, 40 µM of 31 were incubated with HEK293 cells in DMEM medium supplemented with 10 % FCS at 37°C overnight. The cells were harvested, washed extensively with ice-cold PBS and lysed in RIPA buffer. The sample was diluted 1:1 (v/v) with a solution of ACN : H 2O (1:1 )) before analyzing via UPLC-MS. […]\nB Mass spectrum of the peak detected at 3.62 […]", "note": "“Also recorded” adds a separate entry of the source."}
{"smiles": "CCCCCCCCCCCCSC[C@@H](N)C(=O)NCCCC[C@@H]1NC(=O)[C@H](CCC(N)=O)NC1=O", "note": "[Compound 31]", "values": [{"measurement": "Uptake by HEK293 cells", "value": "uptake of compound 31 by HEK293 cells; also recorded: showed uptake by HEK293 cells"}]}
